Reference: patent publication US8883766B2, “Ion channel modulators and methods of use” (Vertex Pharmaceuticals Incorporated, priority 2007, dated 2014)

Target: T1, NaV1.3 (Homo sapiens, UniProt Q9NY46)
T1 construct: expressed in transfected cells
Assay: not given
Settings: read-out: TTX IC50; cited from earlier work

T1 sequence (Q9NY46 whole entry): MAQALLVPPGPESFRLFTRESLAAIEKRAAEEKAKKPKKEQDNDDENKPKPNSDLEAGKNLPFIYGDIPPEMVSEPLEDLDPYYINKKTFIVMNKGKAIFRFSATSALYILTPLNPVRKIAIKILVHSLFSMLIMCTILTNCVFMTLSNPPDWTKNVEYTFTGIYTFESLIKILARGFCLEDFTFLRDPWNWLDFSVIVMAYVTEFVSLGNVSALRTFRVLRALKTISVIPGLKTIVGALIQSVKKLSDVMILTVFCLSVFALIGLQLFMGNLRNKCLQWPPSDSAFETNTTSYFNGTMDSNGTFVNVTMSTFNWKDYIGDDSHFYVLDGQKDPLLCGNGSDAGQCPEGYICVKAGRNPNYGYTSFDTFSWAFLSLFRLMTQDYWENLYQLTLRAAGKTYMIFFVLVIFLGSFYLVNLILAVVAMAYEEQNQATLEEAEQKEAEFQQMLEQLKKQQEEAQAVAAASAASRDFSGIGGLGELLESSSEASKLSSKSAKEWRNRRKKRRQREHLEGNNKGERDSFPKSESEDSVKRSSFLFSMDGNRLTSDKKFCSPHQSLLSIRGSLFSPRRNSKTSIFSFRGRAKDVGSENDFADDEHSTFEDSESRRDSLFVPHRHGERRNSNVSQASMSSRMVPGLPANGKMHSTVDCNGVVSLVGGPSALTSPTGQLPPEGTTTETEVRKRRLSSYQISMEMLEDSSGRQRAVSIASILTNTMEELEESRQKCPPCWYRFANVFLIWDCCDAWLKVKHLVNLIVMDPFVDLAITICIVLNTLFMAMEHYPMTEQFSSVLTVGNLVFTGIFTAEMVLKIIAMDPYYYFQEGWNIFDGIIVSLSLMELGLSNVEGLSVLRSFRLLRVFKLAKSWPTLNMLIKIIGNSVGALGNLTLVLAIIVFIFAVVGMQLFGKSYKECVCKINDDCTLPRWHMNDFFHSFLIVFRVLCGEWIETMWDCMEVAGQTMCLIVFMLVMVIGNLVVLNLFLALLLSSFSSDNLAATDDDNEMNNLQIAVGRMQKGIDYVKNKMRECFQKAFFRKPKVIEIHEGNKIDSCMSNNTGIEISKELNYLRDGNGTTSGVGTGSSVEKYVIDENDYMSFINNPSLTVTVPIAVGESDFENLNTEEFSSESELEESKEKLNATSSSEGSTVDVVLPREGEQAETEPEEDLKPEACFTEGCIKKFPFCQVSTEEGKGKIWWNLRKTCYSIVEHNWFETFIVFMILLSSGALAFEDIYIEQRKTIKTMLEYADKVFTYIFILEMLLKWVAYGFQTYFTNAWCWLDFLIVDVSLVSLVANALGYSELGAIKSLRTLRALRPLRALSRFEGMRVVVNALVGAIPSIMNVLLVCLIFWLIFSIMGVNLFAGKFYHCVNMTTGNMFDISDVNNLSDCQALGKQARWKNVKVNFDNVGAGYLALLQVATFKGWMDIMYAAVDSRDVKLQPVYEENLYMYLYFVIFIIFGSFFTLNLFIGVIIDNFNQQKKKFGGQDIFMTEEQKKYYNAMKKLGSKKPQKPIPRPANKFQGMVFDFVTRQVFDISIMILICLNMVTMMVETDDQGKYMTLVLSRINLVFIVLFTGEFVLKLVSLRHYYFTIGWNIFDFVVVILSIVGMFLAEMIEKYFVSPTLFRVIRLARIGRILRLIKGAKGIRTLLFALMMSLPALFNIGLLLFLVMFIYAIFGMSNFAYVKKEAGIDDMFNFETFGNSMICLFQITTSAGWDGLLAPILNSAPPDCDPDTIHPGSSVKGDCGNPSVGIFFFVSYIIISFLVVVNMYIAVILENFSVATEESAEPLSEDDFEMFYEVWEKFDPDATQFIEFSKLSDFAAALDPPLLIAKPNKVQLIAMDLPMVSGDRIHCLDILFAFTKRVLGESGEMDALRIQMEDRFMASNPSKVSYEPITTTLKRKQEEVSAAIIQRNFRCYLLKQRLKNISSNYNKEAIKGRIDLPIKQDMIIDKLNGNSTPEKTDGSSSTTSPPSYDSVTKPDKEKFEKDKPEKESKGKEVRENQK

For `NC1=N[C@H](O)[C@H]2[C@H]3O[C@]4(O)O[C@@H]([C@@H](O)[C@@]2(N1)[C@@H]4O)[C@]3(O)CO` [TTX, tetrodotoxin], which IC50 is on record?
Its IC50 is 15 nM.

Target: T1, NaV1.3
Assay: VIPR optical membrane potential assay with electrical stimulation, HEK293 cells stably expressing NaV1.3
Format: cell-based
Settings: compound activity for the NaV1.3 receptors
Protocol: Compounds of the invention are useful as antagonists of voltage-gated sodium ion channels. Antagonist properties of test compounds were assessed as follows. Cells expressing the NaV of interest were placed into microtiter plates. After an incubation period, the cells were stained with fluorescent dyes sensitive to the transmembrane potential. The test compounds were added to the microtiter plate. The cells were stimulated with either chemical or electrical means to evoke a NaV dependent membrane potential change from unblocked channels, which was detected and measured with trans-membrane potential-sensitive dyes. Antagonists were detected as a decreased membrane potential response to the stimulus. The optical membrane potential assay utilized voltage-sensitive FRET sensors described by Gonzalez and Tsien (See, Gonzalez, J. E. and R. Y. Tsien (1995) “Voltage sensing by fluorescence resonance energy transfer in single cells” Biophys J 69(4): 1272-80, and Gonzalez, J. E. and R. Y. Tsien (1997) “Improved indicators of cell membrane potential that use fluorescence resonance energy transfer” Chem Biol 4(4): 269-77) in combination with instrumentation for measuring fluorescence changes such as the Voltage/Ion Probe Reader (VIPR®) (See, Gonzalez, J. E., K. Oades, et al. (1999) “Cell-based assays and instrumentation for screening ion-channel targets” Drug Discov Today 4(9): 431-439).
The following is an example of how NaV1.3 inhibition activity is measured using the optical membrane potential method #2. Other subtypes are performed in an analogous mode in a cell line expressing the NaV of interest.
HEK293 cells stably expressing NaV1.3 are plated into 96-well microtiter plates. After an appropriate incubation period, the cells are stained with the voltage sensitive dyes CC2-DMPE/DiSBAC2(3) as follows.
2×CC2-DMPE=20 μM CC2-DMPE: 10 mM CC2-DMPE is vortexed with an equivalent volume of 10% pluronic, followed by vortexing in required amount of HBSS containing 10 mM HEPES. Each cell plate will require 5 mL of 2×CC2-DMPE. 50 μL of 2×CC2-DMPE is added to wells containing washed cells, resulting in a 10 μM final staining concentration. The cells are stained for 30 minutes in the dark at RT.
2×DISBAC2(3) with ABSC1=6 μM DISBAC2(3) and 1 mM ABSC1: The required amount of 10 mM DISBAC2(3) is added to a 50 ml conical tube and mixed with 1 μL 10% pluronic for each mL of solution to be made and vortexed together. Then HBSS/HEPES is added to make up 2× solution. Finally, the ABSC1 is added.
The 2×DiSBAC2(3) solution can be used to solvate compound plates. Note that compound plates are made at 2× drug concentration. Wash stained plate again, leaving residual volume of 50 μL. Add 50 μL/well of the 2×DiSBAC2(3) w/ ABSC1. Stain for 30 minutes in the dark at RT.
The electrical stimulation instrument and methods of use are described in ION Channel Assay Methods PCT/US01/21652, herein incorporated by reference. The instrument comprises a microtiter plate handler, an optical system for exciting the coumarin dye while simultaneously recording the coumarin and oxonol emissions, a waveform generator, a current- or voltage-controlled amplifier, and a device for inserting electrodes in well. Under integrated computer control, this instrument passes user-programmed electrical stimulus protocols to cells within the wells of the microtiter plate.
Use the current-controlled amplifier to deliver stimulation wave pulses for 3 s. Two seconds of pre-stimulus recording are performed to obtain the un-stimulated intensities. Five seconds of post-stimulation recording are performed to examine the relaxation to the resting state.
Data are analyzed and reported as normalized ratios of background-subtracted emission intensities measured in the 460 nm and 580 nm channels. Background intensities are then subtracted from each assay channel. […]

Which IC50 does the source give for `COC(=O)NS(=O)(=O)c1ccc(NC(=O)CCn2ccc3cc(Cl)ccc32)cc1` [Compound 51] here?
Its IC50 is over 5 µM.

Which IC50 does the source give for `CCOC(=O)NS(=O)(=O)c1ccc(N2CCN(C(=O)[C@@H](C)N3CCCc4cc(Cl)ccc43)CC2)cc1` [Compound 52] here?
The IC50 was over 5 µM.

With `COC(=O)NS(=O)(=O)c1ccc(N2CC[C@H](N3CCCc4cc(Cl)ccc43)C2=O)cc1` [Compound 53, (S)-methyl 4-(3-(6-chloro-3,4-dihydroquinolin-1(2H)-yl)-2-oxopyrrolidin-1-yl)phenylsulfonylcarbamate] as the molecule, how does the IC50 read?
Its IC50 is over 5 µM.

For `C[C@H](C(=O)Nc1ccc(S(=O)(=O)NC(=O)NC(C)(C)C)cc1)n1ccc2c(F)cccc21` [Compound 54], which IC50 is on record?
The IC50 was over 5 µM.

Which IC50 does the source give for `COC(=O)NS(=O)(=O)c1ccc(NC(=O)[C@@H](C)N2CCCc3cc(F)ccc32)cc1` [Compound 55] here?
Its IC50 is over 5 µM.

For `COC(=O)NS(=O)(=O)c1ccc(NC(=O)Cc2ccccc2)cc1` [Compound 56], which IC50 is on record?
Its IC50 is over 5 µM.

For `C[C@H](C(=O)Nc1ccc(S(=O)(=O)NC(=O)N2CCN(C)CC2)cc1)n1ccc2c(F)cccc21` [Compound 57], which IC50 is on record?
Its IC50 is over 5 µM.

Which IC50 does the source give for `COC(=O)NS(=O)(=O)c1ccc(NC(=O)C(C)n2ccc3c(F)cccc32)cc1` (stereo not shown) [Compound 59] here?
Its IC50 is under 2 µM.

Which IC50 does the source give for `COC(=O)NS(=O)(=O)c1ccc(NC(=O)COc2ccnc3c(C(F)(F)F)cccc23)cc1` [Compound 60] here?
The IC50 was over 5 µM.

With `COC(=O)NS(=O)(=O)c1ccc(N2CCN(C(=O)[C@@H](C)N3CCCc4cc(F)ccc43)CC2)cc1` [Compound 61, (R)-methyl 4-(4-(2-(6-fluoro-3,4-dihydroquinolin-1(2H)-yl)propanoyl)piperazin-1-yl)phenylsulfonylcarbamate] as the molecule, how does the IC50 read?
Its IC50 is over 5 µM.

Which IC50 does the source give for `COC(=O)NS(=O)(=O)c1ccc(NC(=O)[C@@H](C)N2CCCc3cccc(Cl)c32)cc1` [Compound 62] here?
Its IC50 is over 5 µM.

For `C[C@H](C(=O)Nc1ccc(S(=O)(=O)NC(N)=O)cc1)n1ccc2c(F)cccc21` [Compound 63], which IC50 is on record?
Its IC50 is 2 to 5 µM.

With `COC(=O)NS(=O)(=O)c1ccc(NC(=O)COc2ccc(Cl)c(Cl)c2)cc1` [Compound 64] as the molecule, how does the IC50 read?
Its IC50 is over 5 µM.

For `COC(=O)NS(=O)(=O)c1ccc(NC(=O)[C@H](C)Oc2cccc(Cl)c2Cl)cc1` [Compound 65], which IC50 is on record?
Its IC50 is over 5 µM.

Which IC50 does the source give for `Cc1cc(C(=O)NS(=O)(=O)c2ccc(NC(=O)[C@@H](C)n3ccc4c(F)cccc43)cc2)c(C)o1` [Compound 66, (R)—N-(4-(2-(4-fluoro-1H indol-1-yl)propanamido)phenylsulfonyl)-2,5-dimethylfuran-3-carboxamide] here?
The IC50 was over 5 µM.

With `COC(=O)NS(=O)(=O)c1ccc(NC(=O)[C@H](C)N2CCCc3cc(F)ccc32)cc1` [Compound 67] as the molecule, how does the IC50 read?
Its IC50 is over 5 µM.

For `COC(=O)NS(=O)(=O)c1ccc(NC(=O)[C@H](C)n2ccc3cccc(F)c32)cc1` [Compound 68], which IC50 is on record?
Its IC50 is over 5 µM.

Which IC50 does the source give for `COC(=O)NS(=O)(=O)c1ccc(NC(=O)Cn2ccc3cccc(F)c32)cc1` [Compound 69] here?
Its IC50 is over 5 µM.

For `COC(=O)NS(=O)(=O)c1ccc(NC(=O)Cn2ccc3ccc(Cl)cc32)cc1` [Compound 70], which IC50 is on record?
The IC50 was over 5 µM.

With `CCC(=O)NS(=O)(=O)c1ccc(NC(=O)COc2ccnc3c(C(F)(F)F)cccc23)cc1` [Compound 71] as the molecule, how does the IC50 read?
The IC50 was over 5 µM.

For `COC(=O)NS(=O)(=O)c1ccc(NC(=O)[C@@H](CO)N2CCCc3cc(Cl)ccc32)cc1` [Compound 73], which IC50 is on record?
Its IC50 is over 5 µM.

For `C[C@H](C(=O)Nc1ccc(S(=O)(=O)NC(=O)c2ccccc2)cc1)n1ccc2c(F)cccc21` [Compound 74, (R)—N-(4-(2-(4-fluoro-1H indol-1-yl)propanamido)phenylsulfonyl)benzamide], which IC50 is on record?
The IC50 was over 5 µM.

Which IC50 does the source give for `COC(=O)NS(=O)(=O)c1ccc(NC(=O)[C@H](C)N2CCCc3cc(Cl)ccc32)cc1` [Compound 75] here?
The IC50 was over 5 µM.

With `CCC#CCOC(=O)NS(=O)(=O)c1ccc(NC(=O)[C@@H](C)n2ccc3c(F)cccc32)cc1` [Compound 76] as the molecule, how does the IC50 read?
The IC50 was over 5 µM.

Which IC50 does the source give for `COC(=O)NS(=O)(=O)c1ccc(NC(=O)[C@H](CC(C)C)n2ccc3c(F)cccc32)cc1` [Compound 77] here?
The IC50 was over 5 µM.

Which IC50 does the source give for `COC(=O)NS(=O)(=O)c1ccc(NC(=O)[C@@H](C)Oc2ccc(Cl)cc2C)cc1` [Compound 78] here?
The IC50 was over 5 µM.

With `CCCCNC(=O)NS(=O)(=O)c1ccc(NC(=O)[C@@H](C)n2ccc3c(F)cccc32)cc1` [Compound 79] as the molecule, how does the IC50 read?
The IC50 was over 5 µM.

Which IC50 does the source give for `COC(=O)NS(=O)(=O)c1ccc(NC(=O)[C@H](C)n2ccc3ccc(Cl)cc32)cc1` [Compound 80] here?
The IC50 was over 5 µM.

Which IC50 does the source give for `COC(=O)NS(=O)(=O)c1ccc(NC(=O)c2cc3c(F)cc(Cl)cc3[nH]2)cc1` [Compound 81] here?
The IC50 was over 5 µM.

For `CC(=O)NS(=O)(=O)c1ccc(NC(=O)[C@@H](C)n2ccc3c(F)cccc32)cc1` [Compound 82], which IC50 is on record?
Its IC50 is over 5 µM.

Which IC50 does the source give for `COC(=O)NS(=O)(=O)c1ccc(NC(=O)Cn2cc(C)c3cc(Cl)ccc32)cc1` [Compound 83] here?
The IC50 was over 5 µM.

For `COC(=O)NS(=O)(=O)c1ccc(NC(=O)[C@H](C)N2CCCc3ccccc32)cc1` [Compound 84], which IC50 is on record?
Its IC50 is over 5 µM.

Which IC50 does the source give for `COC(=O)NS(=O)(=O)c1ccc(NC(=O)C(C)(C)n2ccc3c(F)cccc32)cc1` [Compound 85] here?
Its IC50 is over 5 µM.

Which IC50 does the source give for `COC(=O)NS(=O)(=O)c1ccc(NC(=O)[C@@H](CC(C)C)N2CCCc3cc(Cl)ccc32)cc1` [Compound 86] here?
The IC50 was 2 to 5 µM.

With `COC(=O)NS(=O)(=O)c1ccc(NC(=O)[C@@H](C)n2ccc3ccc(C(F)(F)F)cc32)cc1` [Compound 87, (R)-methyl 4-(2-(6-(trifluoromethyl)-1H-indol-1-yl)propanamido)phenylsulfonylcarbamate] as the molecule, how does the IC50 read?
Its IC50 is under 2 µM.

With `COC(=O)NS(=O)(=O)c1ccc(NC(=O)c2ccc(OC)cc2)cc1` [Compound 88] as the molecule, how does the IC50 read?
The IC50 was over 5 µM.
